88 compounds from a melting point compilation (Tetko et al.; mined from patent text by program, amines drawn as free bases though some values may be those of a salt) can be followed below.

For orientation: melting point means the temperature, or range, at which the solid turns liquid.

`CCn1nc(C(C)C)c2c1C(=O)NCC(c1ccc(O)cc1)=N2` showed a melting point of 230 °C.

`C=CCNc1nc(C)ccc1C(=O)OC` had a melting point of 140 to 142 °C.

`CCCNC(=O)NS(=O)(=O)c1ccccc1Br` gave a melting point of 218 to 219 °C.

For `NC(=O)COc1c(-c2ccccc2)c(=O)[nH]c2cc(Cl)ccc12`, the melting point lay within 262 to 264 °C.

Regarding `Oc1ccccc1OCC1NCCS1` (stereo not drawn), the melting point was in the range of 76 to 78 °C.

Compound `COC(=O)CCC(C)C1CCC2C3CC=C4CC(OC(C)=O)CC(OC(C)=O)C4(C)C3CCC12C` (stereo not drawn) yielded a melting point of 108 to 113 °C.

In turn, `CCC1c2ccc(F)n2-c2ccc(F)cc2N1S(=O)(=O)c1ccc(O)c(C)c1` (stereo not drawn) had a melting point of 149 to 151 °C.

`CC(Cc1ccc(Oc2cc(N3CCN(Cc4ccccn4)CC3)nc(N)n2)cc1)(Oc1ccccc1)C(=O)O` (stereo not drawn) returned a melting point of 138 to 139 °C.

For the compound `Cc1ccc2c(c1)C(c1ccc(OCC(=O)O)cc1)C(=O)O2` (stereo not drawn), the melting point was 198 to 203 °C.

As to `COc1ccc(C(=O)Nc2ccc3ccc(Oc4ccc(F)cc4)nc3n2)cc1`, the melting point amounted to 100 °C.

On to `CCOC(=O)c1c(-c2cccs2)nn(CC)c(=O)c1Nc1cccnc1`, for which the melting point lay within 124 to 125 °C.

`Cn1c(=O)c(-c2c(Cl)cccc2Cl)cc2cnc(Nc3cccc(C(=O)O)c3)nc21`: the melting point was above 300 °C.

For `Cc1nc(N)nc(N)c1I`, the melting point was in the range of 154 to 156 °C.

For `c1ccc(CNc2cc(N3CCCC3)nc(N3CCCC3)n2)cc1`, the melting point is 70 to 72 °C.

`CCOC(CNC(=C[N+](=O)[O-])SC)OCC` returned a melting point of 73 to 73.5 °C.

`CCc1nnc2c(Nc3ccccc3)nc3ccccc3n12` yielded a melting point of 172 to 174 °C.

The compound `O=C(O)CCC(=O)CCC(=O)Nc1ccc(Cc2ccc(NC(=O)CCC(=O)CCC(=O)O)cc2)cc1` had a melting point of 158 to 160 °C.

In turn, `CC(=O)Nc1c(C(=O)c2ccc(Cl)c(Cl)c2)[nH]c2cc(Cl)ccc12` had a melting point of 169 to 171 °C.

In turn, `COC(=O)CCc1ccc(-n2c(-c3ccccc3)nn(-c3ccc(C#N)cc3)c2=O)cc1` returned a melting point of 190 to 194 °C.

Consider `CSC(SC)=C(C#N)C(=O)c1cc(C)ccc1C`, for which the melting point is 74.5 to 75.5 °C.

`COc1ccccc1CN[C@H]1CCCN(CCCCCCc2ccccc2)[C@H]1c1ccccc1` (relative stereo): the melting point lay in the range of 48 to 53 °C.

`O=C(Cn1c(=O)oc2ccc(Cl)cc21)c1ccc(C(F)(F)F)cc1` returned a melting point of 188 to 189 °C.

Take `C#CCOC(=O)c1c(F)cccc1Oc1nc(OC)cc(OC)n1`: the melting point was in the range of 49 to 50 °C.

As for `COc1cc2c(cc1OC)C1=NCCc3cccc(c31)C2=O`, the melting point was 228 °C.

`CCCCCCS(=O)(=O)c1nn2c(=O)cc(-c3ccccc3)nc2s1` registered a melting point of 131 to 134 °C.

With `O=c1[nH]c(=O)n(C2CC(OCc3ccccc3)C(CO)O2)cc1F` (stereo not drawn), the melting point lay in the range of 138 to 139 °C.

For `N#Cc1cccc(CN2C(=O)C3(COc4cc5c(cc43)CCO5)c3ccccc32)c1` (stereo not drawn), the melting point lay within 187 to 193 °C.

As to `CCOC(=O)/C(=N\OC1CCCCCC1)c1csc(N)n1`, the melting point lay within 107 to 108 °C.

The compound `CC(C)(C)c1ccc(C=C(CCCCCC2CCCCC2)COCc2ccccc2)cc1NC(=O)CC1c2ccccc2Oc2ccccc21` registered a melting point of 110 °C.

`CCCCCCCCCc1ccc(C(=O)CC(=O)C(=O)O)cc1` came in with a melting point of 90 to 91 °C.

For the compound `O=c1[nH]c2ccccc2n1CCCN1CCNCC1`, the melting point worked out at 158 °C.

Turning to `O=C(O)c1cnc2n(c1=O)CCCCC2`, the melting point was 117 to 119 °C.

Compound `O=C(O)C1=Cc2cc(Cl)cc(-c3ccco3)c2OC1C(F)(F)F` (stereo not drawn) returned a melting point of 172 to 173 °C.

`CCc1cc(Nc2ccc(NC(=O)c3ccccc3S(=O)(=O)O)cc2)n2nccc2n1` came in with a melting point above 320 °C.

Take `CC1(C)CC(=O)C(SCc2ccc([N+](=O)[O-])cc2)=C(O)C1`: the melting point fell in the range of 140 to 142 °C.

Turning to `Nc1ncnc2c1ncn2[C@@H]1C=C[C@H](CO)C1`, the melting point fell in the range of 121 to 124 °C.

`N#CC1=C(C2CCN(C(=O)c3ccccc3)CC2)Nc2n[nH]cc2C1c1cccc(C#N)c1Br` (stereo not drawn) showed a melting point above 280 °C.

In turn, `CCOC(=O)C1C(C=C(Br)Br)C1(C)C` (stereo not drawn) displayed a melting point of 110 °C.

On to `CC(C)(CCCc1cccnc1)NC(=O)/C=C/C=C(c1ccc(F)cc1)c1ccc(F)cc1`, for which the melting point stood at 164 °C.

As to `O=C(Nc1cc2ccccc2oc1=O)c1ccccc1NCc1ccncc1`, the melting point lay in the range of 195 to 197 °C.

In the case of `CC(C)(CNC(=O)Cc1ccccc1)NCC(O)c1cc(Cl)c(N)c(Cl)c1` (stereo not drawn), the melting point was 96 to 98 °C.

Consider `COC(=O)c1cncc(NC(=O)C(C)CSC(C)=O)c1` (stereo not drawn), for which the melting point was 88 to 90 °C.

`O=C(c1cccnc1)C(O)c1ccccc1Cl` (stereo not drawn) showed a melting point of 92 °C.

As to `O=c1[nH]c2ccc(C(O)CCN3CCC(Cc4ccccc4)CC3)cc2[nH]1` (stereo not drawn), the melting point fell in the range of 240 to 244 °C.

Regarding `O=S(=O)(CC(O)(CBr)c1cccc(F)c1)c1ccccc1Cl` (stereo not drawn), the melting point turned out to be 121 °C.

Compound `CN(C)CCCOc1cc2oc3cc(-c4ccccc4Cl)c4c(c3c2cc1O)C(=O)NC4=O` registered a melting point of 255 to 258 °C.

As to `CCOC(=O)Cc1ccc(C(=O)c2ccc(C#N)cc2)n1C`, the melting point lay in the range of 117 to 120 °C.

Take `O=C(CC1NC(=O)c2ccsc2-n2cccc21)c1ccccc1` (stereo not drawn): the melting point is 205 °C.

As for `CCNc1nc2ccc(COc3cccc(CN4CCCCC4)c3)cc2o1`, the melting point is 105 to 106 °C.

Compound `O=S(=O)(/C=C/c1ccccc1)c1ncc(Cl)cn1` displayed a melting point of 150 °C.

Consider `O=C(O)COc1nnc(C(Cl)Cl)s1`, for which the melting point came to 114 °C.

`CN(Cc1cc2ccccc2n1C)C(=O)/C=C/c1ccc(N2C(=O)CCC2=O)nc1` had a melting point of 185 to 187 °C.

In the case of `O=C(CCS(=O)C(c1ccccc1)c1ccccc1)NO` (stereo not drawn), the melting point was in the range of 159 to 160 °C.

In turn, `CCCc1nc2c(N)nc3cc(OCCCNC(=O)NS(=O)(=O)c4ccc(F)cc4)ccc3c2n1CC(C)C` had a melting point of 194 to 198 °C.

`Cc1cc(C)cc(S(=O)(=O)n2c(CCCCC(=O)O)cc3nc(Cl)ccc32)c1` displayed a melting point of 160 °C.

As for `COC(=O)c1cc(N)c(Cl)c(S(=O)(=O)n2cccc2)c1`, the melting point lay in the range of 178 to 181 °C.

Regarding `CCCCCCCCCCCCN(Cc1cccnc1)S(C)(=O)=O`, the melting point was 43 to 44 °C.

For `C[C@@H]1O[C@](/C=C/C2CC2)(C(F)(F)F)c2cc(Cl)ccc2NC1=O` (relative stereo), the melting point fell in the range of 171 to 172 °C.

`CC(C)C1(C)N=C2c3ncc(C4OCCO4)cc3C(=O)N2C1=O` (stereo not drawn) yielded a melting point of 102 to 104 °C.

The compound `OCCOc1cccc(OCc2ccccc2)c1` came in with a melting point of 40.5 to 43.5 °C.

For `Cc1oc(-c2ccccc2)nc1COc1ccc(OC(C)(C)C(=O)O)cc1`, the melting point was in the range of 136 to 138 °C.

Consider `COc1ccc(-n2nnc(-c3ccc(Cl)cc3F)c2N)cc1`, for which the melting point is 148 to 150 °C.

`Nc1ccc2c(c1)C(c1ccccc1Cl)=CCC(=O)N2` had a melting point of 192 °C.

With `Cc1ccc(S(=O)(=O)OCCOc2ccc3[nH]nc(S(=O)(=O)c4ccccc4)c3c2)cc1`, the melting point lay in the range of 174 to 177 °C.

`N#Cc1nn(-c2c(Cl)cc(C(F)(F)F)cc2Cl)c(N2CCCCC2)c1S(=O)(=O)C(F)(F)F` displayed a melting point of 153 to 155 °C.

As to `CC1CC(=O)NN=C1c1ccc2nc(C3CC3)n(Cc3ccc(-c4ccccc4-c4nnn[nH]4)cc3)c2c1` (stereo not drawn), the melting point is 216 °C.

`CNC(=O)Nc1ccsc1C(=O)OC` showed a melting point of 141 to 142 °C.

Regarding `C=CCNC(=O)NS(=O)(=O)c1ccccc1OC(Cl)=CCl`, the melting point fell in the range of 187 to 188 °C.

In the case of `Cc1cc2cc(CN3CCC(CC(=O)N(C)C)CC3)cnc2cc1NC(=O)c1ccc(-c2ccc(F)cc2)cc1`, the melting point came out at 219 °C.

In the case of `COc1cc2cc(c1Cl)N(C)C(=O)CC(OC(=O)C(C)N(C)C(=O)C(C)C)C1(C)OC1C(C)C1CC(O)(NC(=O)O1)C(OC)C=CC=C(C)C2OC` (stereo not drawn), the melting point was in the range of 176 to 179 °C.

For `Cc1nc(C(=O)Nc2cccc(Cl)c2Cl)c(C)n1-c1ccccc1`, the melting point is 127 to 129 °C.

`CCOc1nn(-c2ccc(C(F)(F)F)cn2)cc1CCCOc1nn(C)cc1CC(=O)O` came in with a melting point of 115 to 116 °C.

The compound `COC(=O)[C@@H]1CN(C(=O)OC(C)(C)C)CC[C@@H]1C(=O)O` (relative stereo) came in with a melting point of 129 to 136 °C.

For `O=c1ccc(C(F)(F)F)cn1-c1ccc(NCCCl)cc1Cl`, the melting point is 160 to 162 °C.

For the compound `CCCc1nc(SC2CCC(=CC(=O)O)CC2)c(C(=O)O)n1Cc1cc2c(cc1Cl)OCO2` (stereo not drawn), the melting point was 168 °C.

`Nc1ccc(C(=O)Nc2ccc(Cl)nc2)cc1F` came in with a melting point of 193 °C.

For the compound `COc1cc(NS(=O)(=O)c2cccs2)c2[nH]c(C3=NCCS3)cc2c1`, the melting point fell in the range of 188 to 189 °C.

Regarding `N#CC1=C(c2ccncc2)Nc2n[nH]cc2C1c1cccc2nonc12` (stereo not drawn), the melting point is 236 °C.

For `N#Cc1c(Cl)cccc1CSCCNC(=O)c1c(Cl)cccc1Cl`, the melting point is 166 to 168 °C.

For the compound `Sc1nc(-c2ccc(Cl)cc2)c(-c2cccs2)[nH]1`, the melting point fell in the range of 274 to 276 °C.

Compound `CC(=O)c1cccc(OCCCCCC(=O)O)c1` yielded a melting point of 70 to 72 °C.

`COC(=O)C1(Cl)SC=CC1=O` (stereo not drawn) showed a melting point of 70 to 71 °C.

`CC(C)CCOc1ccc(-c2c(Cl)c(CN3C(=O)CCC3=O)nc3sc4c(c23)CCNC4)cc1`: the melting point was 226 to 227 °C.

`Cc1cc2c(cc1C)-n1nnnc1C=C(c1ccc(-n3c(C)nc4cnccc43)cc1)N2` had a melting point of 315 °C.

For the compound `CC1COCc2nc3c(N)nc4ccc(OCc5ccccc5)cc4c3n21` (stereo not drawn), the melting point lay within 100 to 120 °C.

As to `CCOC(=O)c1nnc2ccc(NC(C)=O)cc2c1O`, the melting point is 280 to 281 °C.

`CCOc1nn(-c2cc(C(F)(F)F)ccn2)cc1CCCOc1cccc(CC(=O)O)c1`: the melting point is 128 to 130 °C.

`COc1ccc(-c2cc(=O)c3c(OC)cc(OC)c(C4=CCN(C)CC4)c3o2)cc1` returned a melting point of 179 to 181 °C.
